Test results reported in patent publication US20120195847A1 (Nektar Therapeutics, priority 2008, published 2012).

Experiments:
[1] = tested on: mice; conditions: intracerebroventricular (i.c.v); cited from earlier work
[2] = tested on: mice; conditions: intrathecally (i.t.); cited from earlier work
[3] = Stability of biphalin during pre-incubation under physiological-like conditions; assay type: physicochemical; conditions: 72 hour incubation in assay buffer, pH 7.5 at 37° C.
[4] = Stability of the conjugate during purification; assay type: physicochemical; conditions: reaction mixture, acidic pH values
[5] = target: T1, human δ opioid receptor (Homo sapiens, UniProt P41143); experiment: Radioligand competition binding assay, δ opioid receptor ([3H]DPDPE); conditions: 1 μM; pre-incubated 20 hours
T1 construct: expressed in transfected cells
Protocol: Competition binding experiments were conducted by incubating membrane protein to equilibrium in triplicate in the presence of a fixed concentration of radioligand and increasing concentrations (0.1 nM to 10 μM) of test compound in 100 μL final volume. The radioligands used were specific for each receptor type, and the assay conditions are described in Table BIP6.3. Following incubations, the membranes were rapidly filtered through GF/B filter plate (presoaked with 0.5% polyethyleneimine), washed four times with cold 50 mM Tris-HCl, pH 7.5, and the bound radioactivity was then measured. Non-specific binding was measured in the presence of excess naloxone (100 μM); this value was subtracted from the total binding to yield the specific binding at each test concentration.
The test compounds were stored under acidic condition to stabilize the PEG conjugation.
Ki (affinity of test compound) was obtained using the Cheng Prusoff correction using experimental Kd (affinity of radioligand) values that were previously determined under these assay conditions.

T1 sequence (P41143 whole entry): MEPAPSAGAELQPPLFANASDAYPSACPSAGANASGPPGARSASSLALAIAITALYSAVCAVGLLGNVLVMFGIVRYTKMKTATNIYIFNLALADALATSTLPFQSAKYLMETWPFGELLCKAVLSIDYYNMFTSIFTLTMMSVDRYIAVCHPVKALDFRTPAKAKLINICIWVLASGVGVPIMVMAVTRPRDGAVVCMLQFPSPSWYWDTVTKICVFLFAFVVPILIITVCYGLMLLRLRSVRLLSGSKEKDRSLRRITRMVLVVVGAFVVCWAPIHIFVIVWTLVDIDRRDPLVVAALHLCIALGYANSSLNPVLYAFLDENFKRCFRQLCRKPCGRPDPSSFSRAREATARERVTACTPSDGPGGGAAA

Molecule | potency in eliciting antinociception compared with morphine [1] [fold] | potency compared with morphine, tail flick testing [2] [fold] | stability following incubation [3] | stability of the conjugate [4] | inhibition of specific binding at the highest test concentration [5] [%]
C[C@@H](NC(=O)[C@@H](N)Cc1ccc(O)cc1)C(=O)NCC(=O)N[C@@H](Cc1ccccc1)C(=O)NNC(=O)[C@H](Cc1ccccc1)NC(=O)CNC(=O)[C@@H](C)NC(=O)[C@@H](N)Cc1ccc(O)cc1 [Biphalin, Tyr-D-Ala-Gly-Phe-NH-NH-Phe-Gly-D-Ala-Tyr] | 257 | 1000 | remained stable |  | 
Di-mPEG-SBC-30K-biphalin: releasable di-conjugate of biphalin with N-m-PEG-Benzamide-p-Succinimidyl Carbonate (m-PEG-SBC-30K); not purified |  |  |  | instability of the conjugate, even at acidic pH values | ≤ 50
